In patent EP0366385A1, “Guanine derivatives having antiviral activity and their pharmaceutically acceptable salts” (THE WELLCOME FOUNDATION LIMITED, priority 1988, dated 1990):

System: HIV
Assay: Antiviral activity against HIV (method of Mitsuya et al.)
Assay type: cell-based
Details: Human immunodeficiency virus 1, read-out: IC₅₀
Description: The title compound of Example 1G (L-valine ester) and the title compound of Example 1F (the 1S, 4R enantiomeric form of carbovir) were tested for activity against HIV generally in accordance with the method described by Mitsuya et al, Proc. Natl. Acad. Sci. Vol. 82, pp 7096-7100, Oct. 1985 and found to have activity against HIV at the following concentrations

IC50: 2500 nM
Compound: Nc1nc2c(ncn2[C@H]2C=C[C@@H](CO)C2)c(=O)[nH]1 [Example 1F, (1R, 4S)-9-(4-Hydroxymethyl-2-cyclopentenyl)guanine]
